Measurements taken from ChEMBL document CHEMBL1158630, “Synthesis, docking studies, and evaluation of pyrimidines as inhibitors of SARS-CoV 3CL protease” (Bioorg Med Chem Lett, 2010).

Molecular target: Replicase polyprotein 1a (Severe acute respiratory syndrome-related coronavirus, UniProt P0C6U8)
Assay: Inhibition of SARS coronavirus chymotrypsin-like protease by fluorescence plate reader

| Compound | IC50 [µM] |
| --- | --- |
| N#Cc1c(-c2ccccc2)nc(SCCc2ccccc2)[nH]c1=O | > 50 |
| N#Cc1c(-c2cccc([N+](=O)[O-])c2)nc(SCc2ccc([N+](=O)[O-])cc2)[nH]c1=O | 10.6 |
| COc1ccc(-c2nc(SCc3ccccc3)[nH]c(=O)c2C#N)cc1 | > 50 |
| Cc1ccc(-c2nc(SCc3ccccc3)[nH]c(=O)c2C#N)cc1 | > 50 |
| N#Cc1c(-c2ccccc2)nc(SCc2ccc([N+](=O)[O-])cc2)[nH]c1=O | 35.2 |
| Cc1ccc(-c2nc(SCc3ccc([N+](=O)[O-])cc3)[nH]c(=O)c2C#N)cc1 | > 50 |
| N#Cc1c(-c2cccc([N+](=O)[O-])c2)nc(SCCc2ccccc2)[nH]c1=O | > 50 |
| Cc1ccc(-c2nc(SCCc3ccccc3)[nH]c(=O)c2C#N)cc1 | > 50 |
| N#Cc1c(-c2cccc(Cl)c2)nc(SCc2ccccc2)[nH]c1=O | > 50 |
| N#Cc1c(-c2ccc(Cl)cc2)nc(SCc2ccc([N+](=O)[O-])cc2)[nH]c1=O | 6.1 |
| COc1ccc(-c2nc(SCCc3ccccc3)[nH]c(=O)c2C#N)cc1 | 20.3 |
| N#Cc1c(-c2ccccc2)nc(SCc2ccccc2)[nH]c1=O | > 50 |
| N#Cc1c(-c2ccc(Cl)cc2)nc(SCCc2ccccc2)[nH]c1=O | 16.9 |
| COc1ccc(-c2nc(SCc3ccc([N+](=O)[O-])cc3)[nH]c(=O)c2C#N)cc1 | 26.3 |
